Data reported in US5424456A, “N-arylalkylderivatives of 2-aminomethyl-2,3-dihydro-1,4-benzodioxine and the process of preparation thereof” (Vyzkumny Ustav Pro Farmacii A Biochemii s.p., priority 1991, dated 1995).

Tests used:
blood pressure [1] = assay: Hypotensive activity, conscious monkeys; type: in vivo, Macaca mulatta
Method: c) The blood pressure of conscious monkeys (Macaca mulatta) was measured non-invasively on the arm. The average decrease in systolic (SBP) and diastolic (DBP) blood pressure after intravenous and oral administration was expressed in per cents of the starting blood pressure.

blood pressure [2] = assay: Hypotensive activity, pentobarbital anaesthesized dogs; type: in vivo, dog
Source text: b) The blood pressure of pentobarbital anaesthesized dogs was registered invasively in arteria femoralis. The average decrease in systolic (SBP) arid diastolic (DBP) blood pressure expressed in per cents of the starting blood pressure level after intravenous and oral administration is shown in Tables 5 and 6.

[3] = i.v., 0.46 mg/kg, value 1 of 5 (heads 5/30/60/180 min; probably 1 min)
[4] = i.v., 0.46 mg/kg, value 2 of 5 (heads 5/30/60/180 min; probably 5 min)
[5] = i.v., 0.46 mg/kg, value 3 of 5 (heads 5/30/60/180 min; probably 30 min)
[6] = i.v., 0.46 mg/kg, value 4 of 5 (heads 5/30/60/180 min; probably 60 min)
[7] = i.v., 0.46 mg/kg, value 5 of 5 (heads 5/30/60/180 min; probably 180 min)
[8] = i.v., 4.6 mg/kg, value 1 of 5 (heads 5/30/60/180 min; probably 1 min)
[9] = i.v., 4.6 mg/kg, value 2 of 5 (heads 5/30/60/180 min; probably 5 min)
[10] = i.v., 4.6 mg/kg, value 3 of 5 (heads 5/30/60/180 min; probably 30 min)
[11] = i.v., 4.6 mg/kg, value 4 of 5 (heads 5/30/60/180 min; probably 60 min)
[12] = i.v., 4.6 mg/kg, value 5 of 5 (heads 5/30/60/180 min; probably 180 min)
[13] = i.v., 0.45 mg/kg, value 1 of 5 (heads 5/30/60/180 min; probably 1 min)
[14] = i.v., 0.45 mg/kg, value 2 of 5 (heads 5/30/60/180 min; probably 5 min)
[15] = i.v., 0.45 mg/kg, value 3 of 5 (heads 5/30/60/180 min; probably 30 min)
[16] = i.v., 0.45 mg/kg, value 4 of 5 (heads 5/30/60/180 min; probably 60 min)
[17] = i.v., 0.45 mg/kg, value 5 of 5 (heads 5/30/60/180 min; probably 180 min)
[18] = i.v., 4.5 mg/kg, value 1 of 5 (heads 5/30/60/180 min; probably 1 min)
[19] = i.v., 4.5 mg/kg, value 2 of 5 (heads 5/30/60/180 min; probably 5 min)
[20] = i.v., 4.5 mg/kg, value 3 of 5 (heads 5/30/60/180 min; probably 30 min)
[21] = i.v., 4.5 mg/kg, value 4 of 5 (heads 5/30/60/180 min; probably 60 min)
[22] = i.v., 4.5 mg/kg, value 5 of 5 (heads 5/30/60/180 min; probably 180 min)

## COc1ccc(C(C#N)(CCCNCC2COc3ccccc3O2)C(C)C)cc1OC (racemic) [VUFB 17951, 5-(2,3-Dihydro-1,4-benzodioxin-2-ylmethylamino)-2-(3,4-dimethoxyphenyl)-2-isopropyl valeronitrile]
Blood pressure [1]; i.v., 0.25 mg/kg, 1 min
  decrease in diastolic blood pressure (DBP): -49 per cents
  decrease in systolic blood pressure (SBP): -37 per cents
Blood pressure [1]; i.v., 0.25 mg/kg, 5 min
  decrease in diastolic blood pressure (DBP): -50 per cents
  decrease in systolic blood pressure (SBP): -45 per cents
Blood pressure [1]; i.v., 0.25 mg/kg, 30 min
  decrease in diastolic blood pressure (DBP): -31 per cents
  decrease in systolic blood pressure (SBP): -28 per cents
Blood pressure [1]; i.v., 0.25 mg/kg, 60 min
  decrease in diastolic blood pressure (DBP): -17 per cents
  decrease in systolic blood pressure (SBP): -11 per cents
Blood pressure [1]; i.v., 0.25 mg/kg, 180 min
  decrease in diastolic blood pressure (DBP): -18 per cents
  decrease in systolic blood pressure (SBP): -8 per cents
Blood pressure [1]; i.v., 1.0 mg/kg, 1 min
  decrease in diastolic blood pressure (DBP): -58 per cents
  decrease in systolic blood pressure (SBP): -50 per cents
Blood pressure [1]; i.v., 1.0 mg/kg, 5 min
  decrease in diastolic blood pressure (DBP): -60 per cents
  decrease in systolic blood pressure (SBP): -53 per cents
Blood pressure [1]; i.v., 1.0 mg/kg, 30 min
  decrease in diastolic blood pressure (DBP): -46 per cents
  decrease in systolic blood pressure (SBP): -39 per cents
Blood pressure [1]; i.v., 1.0 mg/kg, 60 min
  decrease in diastolic blood pressure (DBP): -30 per cents
  decrease in systolic blood pressure (SBP): -29 per cents
Blood pressure [1]; i.v., 1.0 mg/kg, 180 min
  decrease in diastolic blood pressure (DBP): -23 per cents
  decrease in systolic blood pressure (SBP): -19 per cents
Blood pressure [1]; p.o., 10.0 mg/kg, 5-6 hours
  decrease in diastolic blood pressure (DBP): -29 per cents
  decrease in systolic blood pressure (SBP): -23 per cents
Blood pressure [1]; p.o., 10.0 mg/kg, 0.5 hours
  decrease in diastolic blood pressure (DBP): -30 per cents
  decrease in systolic blood pressure (SBP): -26 per cents
Blood pressure [1]; p.o., 10.0 mg/kg, 1 hours
  decrease in diastolic blood pressure (DBP): -27 per cents
  decrease in systolic blood pressure (SBP): -24 per cents
Blood pressure [1]; p.o., 10.0 mg/kg, 3 hours
  decrease in diastolic blood pressure (DBP): -26 per cents
  decrease in systolic blood pressure (SBP): -21 per cents
Blood pressure [1]; p.o., 10.0 mg/kg, 24 hours
  decrease in diastolic blood pressure (DBP): -11 per cents
  decrease in systolic blood pressure (SBP): -9 per cents
Blood pressure [2]; [3]
  decrease in diastolic blood pressure (DBP): -52 per cents
  decrease in systolic blood pressure (SBP): -46 per cents
Blood pressure [2]; [4]
  decrease in diastolic blood pressure (DBP): -46 per cents
  decrease in systolic blood pressure (SBP): -47 per cents
Blood pressure [2]; [5]
  decrease in diastolic blood pressure (DBP): -40 per cents
  decrease in systolic blood pressure (SBP): -41 per cents
Blood pressure [2]; [6]
  decrease in diastolic blood pressure (DBP): -36 per cents
  decrease in systolic blood pressure (SBP): -41 per cents
Blood pressure [2]; [7]
  decrease in diastolic blood pressure (DBP): -28 per cents
  decrease in systolic blood pressure (SBP): -26 per cents
Blood pressure [2]; [8]
  decrease in diastolic blood pressure (DBP): -53 per cents
  decrease in systolic blood pressure (SBP): -46 per cents
Blood pressure [2]; [9]
  decrease in diastolic blood pressure (DBP): -49 per cents
  decrease in systolic blood pressure (SBP): -48 per cents
Blood pressure [2]; [10]
  decrease in diastolic blood pressure (DBP): -47 per cents
  decrease in systolic blood pressure (SBP): -42 per cents
Blood pressure [2]; [11]
  decrease in diastolic blood pressure (DBP): -42 per cents
  decrease in systolic blood pressure (SBP): -40 per cents
Blood pressure [2]; [12]
  decrease in diastolic blood pressure (DBP): -34 per cents
  decrease in systolic blood pressure (SBP): -31 per cents
Blood pressure [2]; p.o., 4.6 mg/kg, 15 min
  decrease in diastolic blood pressure (DBP): -9 per cents
  decrease in systolic blood pressure (SBP): -9 per cents
Blood pressure [2]; p.o., 4.6 mg/kg, 30 min
  decrease in diastolic blood pressure (DBP): -11 per cents
  decrease in systolic blood pressure (SBP): -11 per cents
Blood pressure [2]; p.o., 4.6 mg/kg, 60 min
  decrease in diastolic blood pressure (DBP): -13 per cents
  decrease in systolic blood pressure (SBP): -14 per cents
Blood pressure [2]; p.o., 4.6 mg/kg, 120 min
  decrease in diastolic blood pressure (DBP): -14 per cents
  decrease in systolic blood pressure (SBP): -19 per cents
Blood pressure [2]; p.o., 4.6 mg/kg, 300 min
  decrease in diastolic blood pressure (DBP): -19 per cents
  decrease in systolic blood pressure (SBP): -24 per cents

## Cc1ccccc1C(C#N)(CCCNCC1COc2ccccc2O1)C(C)C (racemic) [VUFB 17959, 5-(2,3-dihydro-1,4-benzodioxin-2-ylmethylamino)-2-isopropyl-2-(2-methylphenyl) valeronitrile]
Blood pressure [1]; i.v., 0.25 mg/kg, 1 min
  decrease in diastolic blood pressure (DBP): -4 per cents
  decrease in systolic blood pressure (SBP): -1 per cents
Blood pressure [1]; i.v., 0.25 mg/kg, 5 min
  decrease in diastolic blood pressure (DBP): -16 per cents
  decrease in systolic blood pressure (SBP): -12 per cents
Blood pressure [1]; i.v., 0.25 mg/kg, 30 min
  decrease in diastolic blood pressure (DBP): -24 per cents
  decrease in systolic blood pressure (SBP): -22 per cents
Blood pressure [1]; i.v., 0.25 mg/kg, 60 min
  decrease in diastolic blood pressure (DBP): -20 per cents
  decrease in systolic blood pressure (SBP): -17 per cents
Blood pressure [1]; i.v., 0.25 mg/kg, 180 min
  decrease in diastolic blood pressure (DBP): -7 per cents
  decrease in systolic blood pressure (SBP): -5 per cents
Blood pressure [1]; i.v., 1.0 mg/kg, 1 min
  decrease in diastolic blood pressure (DBP): -34 per cents
  decrease in systolic blood pressure (SBP): -28 per cents
Blood pressure [1]; i.v., 1.0 mg/kg, 5 min
  decrease in diastolic blood pressure (DBP): -38 per cents
  decrease in systolic blood pressure (SBP): -31 per cents
Blood pressure [1]; i.v., 1.0 mg/kg, 30 min
  decrease in diastolic blood pressure (DBP): -42 per cents
  decrease in systolic blood pressure (SBP): -31 per cents
Blood pressure [1]; i.v., 1.0 mg/kg, 60 min
  decrease in diastolic blood pressure (DBP): -27 per cents
  decrease in systolic blood pressure (SBP): -24 per cents
Blood pressure [1]; i.v., 1.0 mg/kg, 180 min
  decrease in diastolic blood pressure (DBP): -14 per cents
  decrease in systolic blood pressure (SBP): -8 per cents
Blood pressure [1]; p.o., 10.0 mg/kg, 5-6 hours
  decrease in diastolic blood pressure (DBP): -10 per cents
  decrease in systolic blood pressure (SBP): -11 per cents
Blood pressure [1]; p.o., 10.0 mg/kg, 0.5 hours
  decrease in diastolic blood pressure (DBP): -16 per cents
  decrease in systolic blood pressure (SBP): -20 per cents
Blood pressure [1]; p.o., 10.0 mg/kg, 1 hours
  decrease in diastolic blood pressure (DBP): -15 per cents
  decrease in systolic blood pressure (SBP): -15 per cents
Blood pressure [1]; p.o., 10.0 mg/kg, 3 hours
  decrease in diastolic blood pressure (DBP): -16 per cents
  decrease in systolic blood pressure (SBP): -17 per cents
Blood pressure [1]; p.o., 10.0 mg/kg, 24 hours
  decrease in diastolic blood pressure (DBP): +5 per cents
  decrease in systolic blood pressure (SBP): +1 per cents
Blood pressure [2]; [13]
  decrease in diastolic blood pressure (DBP): -52 per cents
  decrease in systolic blood pressure (SBP): -16 per cents
Blood pressure [2]; [14]
  decrease in diastolic blood pressure (DBP): -23 per cents
  decrease in systolic blood pressure (SBP): -23 per cents
Blood pressure [2]; [15]
  decrease in diastolic blood pressure (DBP): -16 per cents
  decrease in systolic blood pressure (SBP): -14 per cents
Blood pressure [2]; [16]
  decrease in diastolic blood pressure (DBP): -16 per cents
  decrease in systolic blood pressure (SBP): -13 per cents
Blood pressure [2]; [17]
  decrease in diastolic blood pressure (DBP): -2 per cents
  decrease in systolic blood pressure (SBP): -6 per cents
Blood pressure [2]; [18]
  decrease in diastolic blood pressure (DBP): -63 per cents
  decrease in systolic blood pressure (SBP): -43 per cents
Blood pressure [2]; [19]
  decrease in diastolic blood pressure (DBP): -46 per cents
  decrease in systolic blood pressure (SBP): -43 per cents
Blood pressure [2]; [20]
  decrease in diastolic blood pressure (DBP): -29 per cents
  decrease in systolic blood pressure (SBP): -31 per cents
Blood pressure [2]; [21]
  decrease in diastolic blood pressure (DBP): -25 per cents
  decrease in systolic blood pressure (SBP): -23 per cents
Blood pressure [2]; [22]
  decrease in diastolic blood pressure (DBP): -14 per cents
  decrease in systolic blood pressure (SBP): -17 per cents
Blood pressure [2]; p.o., 4.2 mg/kg, 15 min
  decrease in diastolic blood pressure (DBP): -5 per cents
  decrease in systolic blood pressure (SBP): -5 per cents
Blood pressure [2]; p.o., 4.2 mg/kg, 30 min
  decrease in diastolic blood pressure (DBP): -20 per cents
  decrease in systolic blood pressure (SBP): -16 per cents
Blood pressure [2]; p.o., 4.2 mg/kg, 60 min
  decrease in diastolic blood pressure (DBP): -20 per cents
  decrease in systolic blood pressure (SBP): -18 per cents
Blood pressure [2]; p.o., 4.2 mg/kg, 120 min
  decrease in diastolic blood pressure (DBP): -20 per cents
  decrease in systolic blood pressure (SBP): -20 per cents
Blood pressure [2]; p.o., 4.2 mg/kg, 300 min
  decrease in diastolic blood pressure (DBP): -21 per cents
  decrease in systolic blood pressure (SBP): -23 per cents
